Consider two compounds from US9445596B2, “Small molecule compounds for the control of nematodes” (California Institute of Technology, priority 2011, dated 2016).

One experiment deals with P. pacificus. The experiment can be described thus: Dauer formation assay. Format: in vivo, Pristionchus pacificus. The note with it: synthetic samples; first assayed at 1 μM. On the procedure:
Dauer formation assays were performed as described in Ogawa et al., Curr. Biol. 19:67-71 (2009), which is hereby incorporated by reference in its entirety, using heat- or kanamycin-killed E. coli OP50. Synthetic compounds were dissolved in ethanol (0.5 mM, stock solution) and combined with water to make a […] and subsequently added to 3 mL NGM-agar without peptone ([…], 0.3, 0.1 μM final concentrations).

The subject of experiment [1] is P. pacificus strain RSB020. Put plainly: Mouth-form dimorphism assay. Format: in vivo, Pristionchus pacificus. On the procedure:
Mouth-form dimorphism assays were performed using P. pacificus strain RSB020. The synthetic compounds dissolved in ethanol (0.5 mM) were diluted with water to make 100 μl solution and subsequently added to 3 mL NGM-agar (1 μM final concentration). The assay plates were seeded with 50 μl OP50 culture in LB medium and incubated overnight at 20° C. to allow bacterial growth. Each replicate included the progeny of two mothers, which were picked as adult hermaphrodites of a consistent age (carrying 4-6 eggs) and which were all from the same P. pacificus culture plate. Following the placement of mothers on assay plates, plates were kept at 20° C. for six days, such that the entire broods were adults at the time of screening. A random sample of 50 hermaphrodite progeny was screened per plate. All animals were screened by differential interference contrast (DIC) microscopy on a Zeiss Axiskop. The following discrete characters were used to discriminate eurystomatous from stenostomatous individuals, respectively: (1) claw-shaped vs. flint-shaped (i.e. dorsoventrally symmetrical) dorsal tooth; (2) presence vs. absence of a subventral tooth; (3) strongly vs. weakly sclerotized stomatal walls. No intermediate mouth-forms were observed. Experiments were conducted in triplicate for each treatment. In assays of responses to compounds of several concentrations (1, 0.3, 0.1, 0.03, 0.01 μM final concentrations), experiments were performed as described above, with the following modifications. To allow greater resolution of responses to lower concentrations, 60 randomly screened individuals in each of five replicates per concentration per compound were assayed. All concentration-curve experiments were performed in parallel using mothers picked randomly from the same two source populations. To prepare large numbers of individual mothers for these experiments, source populations were established from virgin hermaphrodites to constrain the presence of males and were conditioned to well-fed and ambient conditions for at least one generation before mothers were picked for the assays.

Entries after “also recorded” stand apart in the source; their conditions may differ.

For `C[C@H](CCC(=O)O[C@H](C)[C@H](NC(=O)Nc1ncnc2c1ncn2[C@@H]1OC[C@@H](O)[C@H](O)[C@H]1O)C(=O)O)O[C@@H]1O[C@@H](C)[C@H](O)C[C@@H]1O` [npar#1, (2S,3R)-3-(((R)-4-(((2R,3S,5R,6S)-3,5-dihydroxy-6-methyltetrahydro-2H-pyran-2-yl)oxy)pentanoyl)oxy)-2-(3-(9-((2R,3R,4S,5R)-3,4,5-trihydroxytetrahydro-2H-pyran-2-yl)-9H-purin-6-yl)ureido)butanoic acid], in the experiment on P. pacificus, the dauer induction entry was “induces dauer arrest; also recorded: strongly induced dauer formation”. Also, in experiment [1] (high concentrations), the “induction of the eurystomatous mouth form” value is listed as “weaker induction of the eurystomatous mouth form”.
Consider `C[C@H](CCC(=O)O)O[C@@H]1O[C@@H](C)[C@H](O)C[C@@H]1O` [part#9, (R)-4-(((2R,3S,5R,6S)-3,5-dihydroxy-6-methyltetrahydro-2H-pyran-2-yl)oxy)pentanoic acid], for which the dauer induction result with P. pacificus is recorded as “weaker dauer inducation”. Further, the “induction of the eurystomatous mouth form” value in experiment [1] (synthetic samples, first assayed at 1 μM) is “inactive”.
